From patent US12064464B2, “Plantaricin NC8 alpha beta markedly enhances the effects of antibiotics” (priority 2018, dated 2024)

Assays:
[1] = tested on: S. epidermidis ATCC 12228; assay: Broth microdilution MIC/MBC; format: cell-based, Staphylococcus epidermidis
Text: Staphylococcus aureus CCUG 35601 (MRSA, Culture Collection, University of Gothenburg) and Staphylococcus aureus ATCC 29213 (MSSA, ATCC, Manassas, VA). Staphylococcus epidermidis ATCC 12228 (ATCC, Manassas, VA), RP62A, N15 and 10 clinical isolates of Staphylococcus epidermidis that have previously been characterized. Isolated Escherichia coli, Enterococcus faecium (including VRE), Pseudomonas aeruginosa, Klebsiella pneumoniae, Enterobacter spp and Acinetobacter baumannii were obtained from Orebro University hospital. Isolated Streptococcus mutans, Streptococcus constellatus and Streptococcus anginosus were obtained from Malmo University. The bacteria were grown on Luria-Bertani (LB) agar plates, supplemented with 5% defibrinated horse blood, and incubated at 37° C. overnight. Single colonies were inoculated into 5 ml of LB broth and incubated on a shaker (300 rpm) at 37° C. overnight. The bacterial concentration was determined by viable count and adjusted to correlate with approximately 10^9 CFU/ml.
The broth microdilution method was used to determine minimal inhibitory concentration (MIC) and minimal bactericidal concentration (MBC). Two-fold serial dilutions of the peptides were used and the final concentrations ranged from 0.097-50 μM. […] The effect of bacteriocin-antibiotic combinations was accomplished by using the same concentration series of antibiotics with a constant concentration of PLNC8 αβ (3.1 μM) in all the wells. […] All experiments were repeated at least three times.

[2] = Fluorescence leakage assay (CF release from liposomes); details: for lysis of liposomes: after 2 min, both the L-form and D-form; for disruption of liposome membranes (CF release): peptide alone
Method: Liposomes were prepared by dry film formation, hydration and finally extrusion through a polycarbonate membrane to form monodisperse large unilamellar vesicles. […] A dry lipid film was formed by evaporation of the chloroform by nitrogen flow and overnight lyophilization. The film was hydrated with either 10 mM phosphate buffer (PB) pH 7 or 10 mM phosphate buffer saline (PBS) pH 7, and the solution was vortexed for 1 min and put on a shaker for 1 h before extruded 21 times through a 100 nm pore-sized polycarbonate membrane. For fluorescence leakage assay the lipid film was hydrated with buffer (PBS) containing self-quenching concentration (50 mM) of 5(6)-carboxyfluorescein (CF) (Sigma Aldrich) and liposomes were prepared as described above. Removal of unencapsulated CF was done by gel filtration using a PD-25 column (GE Healthcare, Uppsala, Sweden) and liposomes with encapsulated CF were eluted with PBS. Leakage of the liposome encapsulated fluorophore CF due to additions of the bacteriocins was recorded using a fluorescence plate reader (Infinite 200, Tecan, Austria) where λex=485 nm and λem=520 nm. CF was encapsulated at self-quenching concentration, and CF release results in an increased fluorescence signal. […] In order to estimate the maximum release from each sample a final addition of 0.5% Triton X-100 was made at the end of all measurements and the total amount of CF (100% release) was estimated after 15 min incubation. The CF release is presented as percentage release for each time interval (measurements taken every minute). The percentage CF release is calculated as 100×(F−F0)/(FT−F0) where F0 is the initial fluorescence intensity of CF before peptide addition, F is the fluorescence intensity of CF at time point t and FT is the maximum fluorescence after the addition of Triton X-100.

[3] = tested on: S. epidermidis RP62A biofilms; assay: Bacterial biofilm disruption; format: cell-based, Staphylococcus epidermidis; details: 1 h
Method: S. epidermidis RP62A was inoculated into 5 ml of LB broth and incubated on a shaker at 37° C. overnight. The bacterial culture was diluted 1:100 into fresh media and 100 μl of bacterial suspension per well was added in a 96-well microtiter plate and incubated statically at 37° C. for 20 h. The wells were washed three times by submerging the plate into a container with distilled water to remove unattached cells. Fresh LB media was added to each well (100 μl) followed by addition of the peptides in different concentrations. The plate was incubated statically for 1 h. Detached material in the wells were transferred to a new microtiter plate for absorbance measurements at 620 nm. The remaining attached biofilms were stained with 0.1% crystal violet for 15 min before the plate was washed four times in distilled water as mentioned above and allowed to dry at room temperature for 2 h. The crystal violet was solubilized in 30% acetic acid for 15 min and the absorbance quantified at 550 nm. Each experiment, with three replicates, was repeated three times.

Substance	enhancement of the inhibitory effects of β1-20 and β7-20 ([1]; co-incubation with α-peptide)	inhibitory and bactericidal effects on S. epidermidis ([1]; α-peptide in combination with the β-peptide)	lysis of liposomes [2]	disruption of liposome membranes (CF release) [2]	disruption of biofilms [3]	growth inhibition of S. epidermidis ([1]; single full-length or truncated peptide)
H-DLTTKLWSSWGYYLGKKARWNLKHPYVQF-OH [PLNC8 α]	not further enhanced	inhibited	not	disrupted the membrane of the liposomes	disruptive effects on the biofilms	–
H-SVPTSVYTLGIKILWSAYKHRKTIEKSFNKGFYH-OH [PLNC8 β]	–	–	complete lysis of liposomes after 2 min	Disruption of the liposome membranes	disruptive effects on the biofilms	inhibited
